Assay results taken from patent US20090238808A1, “Process for the identification of novel enzyme interacting compounds” (priority 2005, published 2009).
One block for each compound: values may come before it.

What was measured:
GCK = GCK (Homo sapiens, UniProt Q12851); assay: Biochemical kinase activity assay (Invitrogen SelectScreen); conditions: read-out: % inhibition, GCK
FER = FER (Homo sapiens, UniProt P16591); assay: as above; conditions: read-out: % inhibition, FER
MER = biological target: T1, MER (Homo sapiens, UniProt Q12866); assay: as above; conditions: read-out: % inhibition, MER
T1 sequence (Q12866 21-999): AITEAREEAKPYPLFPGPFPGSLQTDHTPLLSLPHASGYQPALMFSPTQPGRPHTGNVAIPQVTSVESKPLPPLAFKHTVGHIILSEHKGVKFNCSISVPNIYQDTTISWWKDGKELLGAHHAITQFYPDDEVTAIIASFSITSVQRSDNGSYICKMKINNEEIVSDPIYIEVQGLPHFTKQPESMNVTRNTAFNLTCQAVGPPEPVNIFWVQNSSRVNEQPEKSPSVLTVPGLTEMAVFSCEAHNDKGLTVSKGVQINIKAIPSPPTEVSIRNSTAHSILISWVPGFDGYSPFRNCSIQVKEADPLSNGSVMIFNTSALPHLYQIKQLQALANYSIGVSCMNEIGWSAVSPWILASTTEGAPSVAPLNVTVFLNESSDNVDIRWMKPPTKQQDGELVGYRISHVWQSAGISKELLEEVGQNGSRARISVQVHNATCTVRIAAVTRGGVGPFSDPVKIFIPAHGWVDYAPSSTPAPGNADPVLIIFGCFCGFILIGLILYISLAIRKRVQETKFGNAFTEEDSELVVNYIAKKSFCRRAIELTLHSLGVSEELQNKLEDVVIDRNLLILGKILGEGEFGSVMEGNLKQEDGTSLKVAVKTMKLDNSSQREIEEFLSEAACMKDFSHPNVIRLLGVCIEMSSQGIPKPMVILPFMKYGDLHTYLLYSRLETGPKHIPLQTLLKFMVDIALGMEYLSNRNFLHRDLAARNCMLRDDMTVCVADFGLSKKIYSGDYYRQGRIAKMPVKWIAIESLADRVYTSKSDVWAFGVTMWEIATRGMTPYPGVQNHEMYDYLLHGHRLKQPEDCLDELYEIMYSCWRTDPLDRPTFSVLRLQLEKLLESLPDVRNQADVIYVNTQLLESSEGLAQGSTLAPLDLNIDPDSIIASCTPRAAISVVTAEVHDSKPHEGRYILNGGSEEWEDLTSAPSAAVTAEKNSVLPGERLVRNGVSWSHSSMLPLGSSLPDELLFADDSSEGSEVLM

GSK3B = biological target: T2, GSK3B (Mus musculus, UniProt Q9WV60); assay: Kinobeads elution with test compound, mouse brain lysate, MS; type: binding; conditions: kinase released from kinobeads by specific elution
T2 construct: from tissue; host or cells: mouse brain
Source text: This example illustrates competitive elution of proteins bound to kinobeads with non-modified test compounds (see particularly the fourth aspect of the invention).
(§1) The kinobeads were contacted with mouse brain lysate under conditions that allow the binding of the proteins in the lysate to the ligands. The binding conditions were close to physiological by choosing suitable buffer conditions preserving the function of the proteins. After removing non-captured proteins through a gentle washing procedure the bound proteins were contacted with a test compound for protein elution.
(§2) Various test compounds (see section 2.7) were used to release bound proteins following these steps:
1. Resuspend beads with bound proteins (section 2.4) in 1×DP buffer/0.2% NP-40 as 1:3 slurry (volume/volume). 2. Transfer 20 μl the 1:3 slurry into MoBiTech columns (equivalent to 5 μl of beads). 3. Place the column into an Eppendorf tube and centrifuge it for 15 seconds at 800 rpm at 4° C. Close columns with lower lid. 4. Add 10 μl elution buffer containing 1.0 mM of the test compound (concentration ranges of 0.1 to 1.0 mM are suitable). As a control use elution buffer containing 2% DMSO or 2% DMF dependent on the solvent used for dissolving the test compound. Close column with upper lid. 5. Incubate for 30 minutes at 4° C. in an Eppendorf incubator at 700 rpm. 6. […] To harvest the eluate centrifuge 2 minutes at 2.000 rpm in table top centrifuge at room temperature. The typical volume of the eluate is approximately 15 μl. 7. Add 5 μl 4× NuPAGE SDS Sample Buffer (Invitrogen, NP0007) containing 100 mM DTT (DTT has to be added just prior to use). 8. Incubate for 30 minutes at 50° C. 9. Add 1/10 volume of 200 mg/ml iodoacetamide, incubate for 30 min at room temperature, protect from light. This reaction leads to the alkylation of cysteines for mass spectrometry. 10. Before loading samples onto the gel, centrifuge samples for 5 minutes at 15.000 rpm in order to remove precipitates. 11. […] 2.6 Preparation of Stock Solutions used in this Protocol
(§3) Search criteria varied depending on which mass spectrometer was used for the analysis.

JNK2 = biological target: T3, JNK2 (Mus musculus, UniProt Q9WTU6); assay: as above; type: binding; conditions: kinase released from kinobeads by specific elution
T3 construct: from tissue; host or cells: mouse brain
Method: (§4) This example illustrates competitive elution of proteins bound to kinobeads with non-modified test compounds (see particularly the fourth aspect of the invention). The kinobeads (as described in example 1) were contacted with mouse brains lysate, bound proteins were eluted with various test compounds and the released proteins were analysed by mass spectrometry.
as §1, §2
(§5) 1. Resuspend beads with bound proteins (section 2.4) in 1×DP buffer/0.2% NP-40 as 1:3 slurry (volume/volume). 2. Transfer 20 μl the 1:3 slurry into MoBiTech columns (equivalent to 5 μl of beads). 3. Place the column into an Eppendorf tube and centrifuge it for 15 seconds at 800 rpm at 4° C. Close columns with lower lid. 4. Add 10 μl elution buffer containing 1.0 mM of the test compound (concentration ranges of 0.1 to 1.0 mM are suitable). As a control use elution buffer containing 2% DMSO or 2% DMF dependent on the solvent used for dissolving the test compound. Close column with upper lid. 5. Incubate for 30 minutes at 4° C. in an Eppendorf incubator at 700 rpm. 6. Open column (first top, then bottom), put column back into siliconized tube (SafeSeal Microcentrifuge Tubes, cat. no 11270, Sorenson BioScience, Inc.). To harvest the eluate centrifuge 2 minutes at 2.000 rpm in table top centrifuge at room temperature. The typical volume of the eluate is approximately 15 μl. 7. Add 5 μl 4× NuPAGE SDS Sample Buffer (Invitrogen, NP0007) containing 100 mM DTT (DTT has to be added just prior to use). 8. Incubate for 30 minutes at 50° C. 9. Add 1/10 volume of 200 mg/ml iodoacetamide, incubate for 30 min at room temperature, protect from light. This reaction leads to the alkylation of cysteines for mass spectrometry. 10. Before loading samples onto the gel, centrifuge samples for 5 minutes at 15.000 rpm in order to remove precipitates. 11. For protein separation apply 10 μl sample to NuPAGE 4-12% Bis-Tris gel (Invitrogen, NPO335). 2.6 Preparation of Stock Solutions used in this Protocol
as §3

p38a = biological target: T4, p38a (Mus musculus, UniProt P47811); assay: as above; type: binding; conditions: kinase released from kinobeads by specific elution
T4 construct: from tissue; host or cells: mouse brain
Method: as §4, §1, §2, §5, §3

Erk2 = biological target: T5, Erk2 (Mus musculus, UniProt P63085); assay: as above; type: binding; conditions: kinase released from kinobeads by specific elution
T5 construct: […]; from tissue; host or cells: mouse brain
Method: as §4, §1, §2, §5, §3

JNK1 = biological target: T6, JNK1 (Mus musculus, UniProt Q91Y86); assay: as above; type: binding; conditions: kinase released from kinobeads by specific elution
T6 construct: from tissue; host or cells: mouse brain
Method: as §4, §1, §2, §5, §3

JNK3 = biological target: T7, JNK3 (Mus musculus, UniProt Q61831); assay: as above; type: binding; conditions: kinase released from kinobeads by specific elution
T7 construct: from tissue; host or cells: mouse brain
Method: as §4, §1, §2, §5, §3

p38b = biological target: T8, p38b (Mus musculus, UniProt Q9WUI1); assay: as above; type: binding; conditions: kinase released from kinobeads by specific elution
T8 construct: from tissue; host or cells: mouse brain
Method: as §4, §1, §2, §5, §3

GSK3Aps = biological target: T9, GSK3Aps (Mus musculus, UniProt Q2NL51); assay: as above; type: binding; conditions: kinase released from kinobeads by specific elution
T9 construct: from tissue; host or cells: mouse brain
Method: as §4, §1, §2, §5, §3

AAK1 = AAK1 (Mus musculus, UniProt Q3UHJ0); assay: as above; type: binding; conditions: kinase released from kinobeads by specific elution
Method: as §4, §1, §2, §5, §3

CDK5 = CDK5 (Mus musculus, UniProt P49615); assay: as above; type: binding; conditions: kinase released from kinobeads by specific elution
Method: as §4, §1, §2, §5, §3

T4 sequence (P47811 whole entry): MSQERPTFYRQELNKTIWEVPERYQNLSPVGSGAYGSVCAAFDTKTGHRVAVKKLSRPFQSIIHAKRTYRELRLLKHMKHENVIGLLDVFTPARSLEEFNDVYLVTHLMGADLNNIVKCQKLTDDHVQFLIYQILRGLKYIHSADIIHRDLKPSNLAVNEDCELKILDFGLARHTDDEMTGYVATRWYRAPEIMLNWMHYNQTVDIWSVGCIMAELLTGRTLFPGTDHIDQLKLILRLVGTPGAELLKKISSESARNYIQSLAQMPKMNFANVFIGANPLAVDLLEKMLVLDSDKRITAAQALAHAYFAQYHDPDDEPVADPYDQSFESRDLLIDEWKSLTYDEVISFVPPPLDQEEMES
Sequence of CDK5 (P49615 whole entry): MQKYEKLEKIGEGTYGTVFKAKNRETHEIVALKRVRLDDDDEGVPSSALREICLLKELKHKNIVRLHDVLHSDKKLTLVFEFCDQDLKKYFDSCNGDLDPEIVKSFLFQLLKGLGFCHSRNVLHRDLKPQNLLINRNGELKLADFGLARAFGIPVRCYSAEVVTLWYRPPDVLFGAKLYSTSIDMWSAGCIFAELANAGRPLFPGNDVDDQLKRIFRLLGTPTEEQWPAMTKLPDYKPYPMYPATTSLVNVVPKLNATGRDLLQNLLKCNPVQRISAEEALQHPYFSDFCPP
T7 sequence (Q61831 whole entry): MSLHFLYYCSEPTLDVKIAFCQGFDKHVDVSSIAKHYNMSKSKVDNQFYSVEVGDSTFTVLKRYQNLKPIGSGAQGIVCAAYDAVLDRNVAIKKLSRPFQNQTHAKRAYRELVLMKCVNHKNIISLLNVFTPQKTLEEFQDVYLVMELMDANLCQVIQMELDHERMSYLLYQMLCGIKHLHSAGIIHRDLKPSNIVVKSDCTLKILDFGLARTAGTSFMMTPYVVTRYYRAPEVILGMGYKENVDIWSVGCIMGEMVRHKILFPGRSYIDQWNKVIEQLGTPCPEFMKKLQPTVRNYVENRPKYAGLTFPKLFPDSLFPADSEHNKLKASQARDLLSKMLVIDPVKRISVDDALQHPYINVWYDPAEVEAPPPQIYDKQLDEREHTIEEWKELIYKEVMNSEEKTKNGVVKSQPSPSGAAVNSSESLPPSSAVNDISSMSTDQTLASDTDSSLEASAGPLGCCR
T6 sequence (Q91Y86 whole entry): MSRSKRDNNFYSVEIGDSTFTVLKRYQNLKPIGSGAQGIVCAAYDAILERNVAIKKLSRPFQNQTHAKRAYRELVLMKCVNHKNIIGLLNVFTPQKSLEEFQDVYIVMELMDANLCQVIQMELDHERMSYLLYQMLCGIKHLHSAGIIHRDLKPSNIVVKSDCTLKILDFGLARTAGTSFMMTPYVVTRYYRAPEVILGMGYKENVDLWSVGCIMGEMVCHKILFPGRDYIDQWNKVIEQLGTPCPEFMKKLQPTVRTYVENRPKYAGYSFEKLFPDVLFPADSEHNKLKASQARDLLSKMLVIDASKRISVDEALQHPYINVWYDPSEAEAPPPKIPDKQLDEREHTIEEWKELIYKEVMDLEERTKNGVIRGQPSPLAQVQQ
T3 sequence (Q9WTU6 whole entry): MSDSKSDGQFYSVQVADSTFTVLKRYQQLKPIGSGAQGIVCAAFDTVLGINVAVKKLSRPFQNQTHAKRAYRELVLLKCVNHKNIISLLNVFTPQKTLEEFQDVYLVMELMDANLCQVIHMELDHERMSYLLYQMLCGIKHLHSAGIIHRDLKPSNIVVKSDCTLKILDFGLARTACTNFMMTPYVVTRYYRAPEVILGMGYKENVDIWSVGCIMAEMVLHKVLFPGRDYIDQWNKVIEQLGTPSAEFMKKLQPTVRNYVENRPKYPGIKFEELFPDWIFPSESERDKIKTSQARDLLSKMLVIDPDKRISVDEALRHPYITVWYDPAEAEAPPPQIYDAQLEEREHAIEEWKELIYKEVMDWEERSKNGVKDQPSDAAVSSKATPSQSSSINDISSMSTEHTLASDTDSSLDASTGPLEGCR
Sequence of AAK1 (Q3UHJ0 whole entry): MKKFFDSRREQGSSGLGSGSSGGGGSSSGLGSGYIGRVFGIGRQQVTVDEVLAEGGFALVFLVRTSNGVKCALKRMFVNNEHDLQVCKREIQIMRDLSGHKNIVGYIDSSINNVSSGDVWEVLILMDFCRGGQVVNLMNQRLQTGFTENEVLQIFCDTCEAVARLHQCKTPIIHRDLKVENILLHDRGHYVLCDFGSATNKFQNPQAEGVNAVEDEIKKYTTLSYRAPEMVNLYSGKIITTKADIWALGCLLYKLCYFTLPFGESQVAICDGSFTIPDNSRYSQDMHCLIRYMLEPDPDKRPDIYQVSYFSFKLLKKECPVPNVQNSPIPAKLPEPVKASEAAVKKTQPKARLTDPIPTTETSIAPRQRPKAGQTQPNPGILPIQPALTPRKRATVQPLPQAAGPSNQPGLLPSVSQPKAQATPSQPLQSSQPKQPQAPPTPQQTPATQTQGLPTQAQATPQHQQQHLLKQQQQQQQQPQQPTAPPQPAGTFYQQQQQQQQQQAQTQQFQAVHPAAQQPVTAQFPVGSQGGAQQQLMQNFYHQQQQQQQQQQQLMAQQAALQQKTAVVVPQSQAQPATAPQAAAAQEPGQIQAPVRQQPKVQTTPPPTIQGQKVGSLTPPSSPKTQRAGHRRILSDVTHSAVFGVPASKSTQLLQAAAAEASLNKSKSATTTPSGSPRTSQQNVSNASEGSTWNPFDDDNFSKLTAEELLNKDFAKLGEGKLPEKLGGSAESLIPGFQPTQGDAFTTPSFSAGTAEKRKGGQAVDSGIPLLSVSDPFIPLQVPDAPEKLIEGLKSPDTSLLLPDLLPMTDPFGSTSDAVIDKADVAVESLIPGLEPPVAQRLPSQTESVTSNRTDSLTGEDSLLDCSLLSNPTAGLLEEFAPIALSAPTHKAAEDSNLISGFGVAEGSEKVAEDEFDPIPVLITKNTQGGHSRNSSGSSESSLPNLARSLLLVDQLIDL
T2 sequence (Q9WV60 whole entry): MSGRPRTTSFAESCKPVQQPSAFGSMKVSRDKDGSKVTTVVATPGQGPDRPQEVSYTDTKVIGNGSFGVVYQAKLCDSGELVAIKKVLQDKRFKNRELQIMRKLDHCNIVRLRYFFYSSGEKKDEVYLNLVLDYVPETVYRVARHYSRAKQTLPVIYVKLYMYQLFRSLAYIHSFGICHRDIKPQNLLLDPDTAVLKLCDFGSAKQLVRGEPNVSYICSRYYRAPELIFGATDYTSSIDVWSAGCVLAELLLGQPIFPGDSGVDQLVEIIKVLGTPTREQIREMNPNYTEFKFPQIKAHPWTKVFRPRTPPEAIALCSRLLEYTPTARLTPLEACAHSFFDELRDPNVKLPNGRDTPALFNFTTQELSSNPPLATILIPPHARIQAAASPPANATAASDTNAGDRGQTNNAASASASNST
T5 sequence (P63085 whole entry): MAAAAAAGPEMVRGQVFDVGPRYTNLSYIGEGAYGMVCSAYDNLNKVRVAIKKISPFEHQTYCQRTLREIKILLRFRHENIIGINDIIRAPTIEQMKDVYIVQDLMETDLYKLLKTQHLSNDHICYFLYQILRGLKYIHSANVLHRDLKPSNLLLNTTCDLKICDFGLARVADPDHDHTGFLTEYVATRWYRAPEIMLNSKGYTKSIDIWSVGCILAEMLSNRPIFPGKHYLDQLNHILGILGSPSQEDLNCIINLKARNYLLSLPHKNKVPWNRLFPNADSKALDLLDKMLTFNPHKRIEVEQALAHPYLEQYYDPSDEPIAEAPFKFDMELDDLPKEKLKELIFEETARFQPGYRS
T8 sequence (Q9WUI1 whole entry): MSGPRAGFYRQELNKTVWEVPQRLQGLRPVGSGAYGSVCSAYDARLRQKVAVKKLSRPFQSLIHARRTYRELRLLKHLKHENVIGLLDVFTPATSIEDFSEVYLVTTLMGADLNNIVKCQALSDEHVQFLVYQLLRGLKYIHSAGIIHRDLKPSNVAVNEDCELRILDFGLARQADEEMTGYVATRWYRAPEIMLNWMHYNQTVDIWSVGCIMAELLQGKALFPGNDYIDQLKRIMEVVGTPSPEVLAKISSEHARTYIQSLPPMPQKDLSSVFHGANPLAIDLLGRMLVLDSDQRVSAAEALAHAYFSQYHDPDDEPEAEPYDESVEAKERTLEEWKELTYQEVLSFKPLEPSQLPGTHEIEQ
T9 sequence (Q2NL51 2-490 limits assumed): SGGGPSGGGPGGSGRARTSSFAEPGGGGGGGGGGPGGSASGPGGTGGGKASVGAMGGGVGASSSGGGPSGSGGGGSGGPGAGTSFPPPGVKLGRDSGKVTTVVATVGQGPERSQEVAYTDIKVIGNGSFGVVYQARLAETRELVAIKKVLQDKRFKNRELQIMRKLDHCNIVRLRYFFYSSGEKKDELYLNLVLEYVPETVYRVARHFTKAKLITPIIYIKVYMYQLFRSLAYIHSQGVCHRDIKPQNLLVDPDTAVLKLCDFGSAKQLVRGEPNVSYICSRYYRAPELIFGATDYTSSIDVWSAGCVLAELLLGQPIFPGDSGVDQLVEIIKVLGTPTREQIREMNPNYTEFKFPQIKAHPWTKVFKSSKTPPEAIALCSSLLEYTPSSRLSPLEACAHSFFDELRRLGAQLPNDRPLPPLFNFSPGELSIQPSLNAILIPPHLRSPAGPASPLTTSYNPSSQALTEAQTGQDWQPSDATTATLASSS

inhibition at 5 µM (GCK): 60%
inhibition at 5 µM (FER): 36%
inhibition at 5 µM (MER): 40%
Compound: Cc1nc(Nc2ncc(C(=O)Nc3c(C)cccc3Cl)s2)cc(N2CCN(CCO)CC2)n1 [dasatinib]

mass spectrometry score, GSK3B (GSK3B): 743
number of identified peptides, GSK3B (GSK3B): 34
mass spectrometry score, JNK2 (JNK2): 170
number of identified peptides, JNK2 (JNK2): 5
mass spectrometry score, p38a (p38a): 295
number of identified peptides, p38a (p38a): 10
mass spectrometry score, Erk2 (Erk2): 506
number of identified peptides, Erk2 (Erk2): 20
mass spectrometry score, JNK1 (JNK1): 540
number of identified peptides, JNK1 (JNK1): 19
mass spectrometry score, JNK3 (JNK3): 542
number of identified peptides, JNK3 (JNK3): 30
mass spectrometry score, p38b (p38b): 80
number of identified peptides, p38b (p38b): 2
mass spectrometry score, GSK3Aps (GSK3Aps): 406
number of identified peptides, GSK3Aps (GSK3Aps): 8
mass spectrometry score, AAK1 (AAK1): 198
number of identified peptides, AAK1 (AAK1): 4
mass spectrometry score, CDK5 (CDK5): 166
number of identified peptides, CDK5 (CDK5): 4
Compound: Oc1ccc(-c2nc(-c3ccc(F)cc3)c(-c3ccncc3)[nH]2)cc1 [CZC7098]
